Source: US9789058B2, “Ophthalmic composition for the treatment of ocular infection” (CooperVision International Holding Company, LP, priority 2014, dated 2017)
Values after ≈ are worked out from the molar mass of the structure shown. Like-named read-outs stand apart in the source and are kept apart here. Blank lines part the entries; values can stand above or below the compound they belong to.

Assays:
[1] = test system: methicillin-resistant S. aureus (MRSA); experiment: Broth microdilution susceptibility (MIC), MRSA isolates; type: cell-based, Staphylococus aureus; conditions: for MIC50 / MIC90 / Maximum (MIC) / Minimum (MIC) / MIC: MRSA, N=25 isolates
Description: (§1) The MIC50 and MIC90 of εPL against methicillin-sensitive Staphylococus aureus) and MRSA were determined in these studies. (The “Minimum”, “Maximum”, and MIC50 and MIC90 in the Table are provided in units of μg/ml.) Other antimicrobial agents such as tobramycin, moxifloxacin, and PHMB (polyhexamethylene biguanid) were included for comparison. Broth microdilution tests were performed in accordance with the Clinical and Laboratory Standards Institute (CLSI) (M07-A9, Vol. 32 No. 2, January, 2012) for aerobic and facultative anaerobic strains. Cation-adjusted Mueller-Hinton broth was used for testing staphylococci species.

[2] = test system: methicillin-susceptible S. aureus (MSSA); experiment: Broth microdilution susceptibility (MIC), MSSA isolates; type: cell-based, Staphylococus aureus; conditions: N=25 isolates
Description: as §1

[3] = Ocular toxicity study in rabbits; type: in vivo
Description: Rabbits were divided into three treatment groups, each was treated with increasing concentrations of εPL (50, 150, and 500 μg/mL) in phosphate buffered saline (PBS) at pH 7.3. Specifically, rabbits from each group were dosed with a drop of εPL solution in the left eye of a rabbit eight times during a seven-hour period. The right eye was dosed with PBS. Macroscopic examinations were performed prior to the first dose, and 10 minutes following each dose. Slit lamp microscopic examinations were performed prior to the first dose and at termination. Ocular tissues were collected at termination and submitted for histological evaluation.
During the dosing period, there were some sporadic occurrences of conjunctival discharge as observed by macroscopic examination. However, they were equally divided between εePL-treated and PBS-treated eyes.

[4] = test system: MRSA strain K-950; experiment: Time-kill study (bactericidal activity); type: cell-based, Staphylococus aureus; conditions: for decrease of MRSA colony counts: 8 hours post-inoculation
Description: The bactericidal activity of εPL against MRSA strain K-950 was evaluated. […] Test tubes containing 0.5 mL of εPL at 0.25 μg/mL, 1.0 μg/mL, 4.0 μg/mL or 16.0 μg/mL εPL in Mueller Hinton broth growth media and approximately 10^6 CFU/mL of K-950 were incubated at 37° C. After 1, 2, 4, 6, 8 and 24 hours of incubation, the test tubes were removed and colony forming units were calculated. To calculate CFU, 100 μL of the medium was removed from a tube and serially diluted (1:10 dilutions) in the medium. Aliquots of 100 μL of each dilution were plated, in duplicate, onto TSA agar plates containing 5% sheep's blood. The plates were incubated at 37° C. overnight and the colonies were counted the next day.

[5] = cation-adjusted Mueller-Hinton broth
[6] = Staphylococcus aureus, cation-adjusted Mueller-Hinton broth, read-out: Minimum (MIC)
[7] = Staphylococcus aureus, read-out: MIC50
[8] = Staphylococcus aureus, read-out: MIC90
[9] = Staphylococcus aureus, read-out: Maximum (MIC)

Compound: polyhexamethylene biguanid [PHMB]
MIC50 [1]: 2 µg/mL | MIC90 [1]: 2 µg/mL | Maximum (MIC) [1]: 4 µg/mL | Minimum (MIC) [1, 5]: 1 µg/mL | MIC50 [2]: 2 µg/mL | MIC90 [2]: 2 µg/mL | Maximum (MIC) [2]: 2 µg/mL | Minimum (MIC) [2, 5]: 1 µg/mL

MIC [1, 6]: 0.03 µg/mL (≈ 0.0747 µM) | MIC50 [1, 7]: 1 µg/mL (≈ 2.49 µM) | MIC90 [1, 8]: 4 µg/mL (≈ 9.96 µM) | MIC [1, 9]: 8 µg/mL (≈ 19.9 µM) | MIC [2, 6]: 0.03 µg/mL (≈ 0.0747 µM) | MIC50 [2, 7]: 0.06 µg/mL (≈ 0.149 µM) | MIC90 [2, 8]: 1 µg/mL (≈ 2.49 µM) | MIC [2, 9]: 1 µg/mL (≈ 2.49 µM)
Compound: COc1c(N2C[C@@H]3CCCN[C@@H]3C2)c(F)cc2c(=O)c(C(=O)O)cn(C3CC3)c12 [Moxifloxacin, moxifloxacin]

Compound: ε-polylysine [εPL]
slit lamp microscopic examination and histologic findings ([3]; rabbits, 50, 150 and 500 μg/mL, eight doses in seven hours): did not reveal any abnormality | ocular tolerability ([3]; rabbits, one drop in the eye eight times during a seven-hour period, concentrations up to 500 μg/mL in PBS pH 7.3): well tolerated | MIC50 [1]: 4 µg/mL | MIC90 [1]: 8 µg/mL | Maximum (MIC) [1]: 8 µg/mL | Minimum (MIC) [1, 5]: 4 µg/mL | MICs range ([1]; all 50 isolates tested (MSSA and MRSA)): 4 to 8 µg/mL | MIC50 [2]: 8 µg/mL | MIC90 [2]: 8 µg/mL | Maximum (MIC) [2]: 8 µg/mL | Minimum (MIC) [2, 5]: 4 µg/mL | effect on the colony counts [4]: no effect | Colony Counts ([4]; 0.25X MIC (1 μg/ml), 0 Hours): 4.65 × 10^5 CFU/ml | Colony Counts ([4]; 0.25X MIC (1 μg/ml), 1 Hour): 3.90 × 10^5 CFU/ml | Colony Counts ([4]; 0.25X MIC (1 μg/ml), 2 Hours): 9.75 × 10^5 CFU/ml | Colony Counts ([4]; 0.25X MIC (1 μg/ml), 4 Hours): 2.95 × 10^7 CFU/ml | Colony Counts ([4]; 0.25X MIC (1 μg/ml), 6 Hours): 5.90 × 10^6 CFU/ml | Colony Counts ([4]; 0.25X MIC (1 μg/ml), 8 Hours): 1.19 × 10^7 CFU/ml | Colony Counts ([4]; 0.25X MIC (1 μg/ml), 24 Hours): 1.19 × 10^8 CFU/ml | Colony Counts ([4]; 1X MIC (4 μg/ml), 4 Hours): 6.30 × 10^4 CFU/ml | Colony Counts ([4]; 4X MIC (16 μg/ml), 0 Hours): 4.55 × 10^5 CFU/ml | Colony Counts ([4]; 4X MIC (16 μg/ml), 1 Hour): 4.25 × 10^5 CFU/ml | Colony Counts ([4]; 4X MIC (16 μg/ml), 2 Hours): 8.45 × 10^4 CFU/ml | Colony Counts ([4]; 4X MIC (16 μg/ml), 4 Hours): 1.92 × 10^3 CFU/ml | Colony Counts ([4]; 4X MIC (16 μg/ml), 6 Hours): 2.10 × 10^2 CFU/ml | Colony Counts ([4]; 4X MIC (16 μg/ml), 8 Hours): 3.00 × 10^1 CFU/ml | Colony Counts ([4]; 4X MIC (16 μg/ml), 24 Hours): 7.10 × 10^3 CFU/ml | decrease of MRSA colony counts ([4]; 4 times the MIC (16.0 μg/ml)): more than 3 logs | MIC of the tested strain ([4]; MRSA strain K-950): 4.0 µg/mL | decrease of MRSA colony counts ([4]; at MIC): 2.4 Log | action against MRSA ([4]; time-kill study, MRSA K-950): bactericidal

MIC [1, 6]: 0.12 µg/mL (≈ 0.257 µM) | MIC50 [1, 7]: 0.5 µg/mL (≈ 1.07 µM) | MIC90 [1, 8]: 64 µg/mL (≈ 137 µM) | MIC [1, 9]: 64 µg/mL (≈ 137 µM) | MIC [2, 6]: 0.12 µg/mL (≈ 0.257 µM) | MIC50 [2, 7]: 0.25 µg/mL (≈ 0.535 µM) | MIC90 [2, 8]: 1 µg/mL (≈ 2.14 µM) | MIC [2, 9]: 1 µg/mL (≈ 2.14 µM)
Compound: NC[C@H]1O[C@H](O[C@H]2[C@H](O)[C@@H](O[C@H]3O[C@H](CO)[C@@H](O)[C@H](N)[C@H]3O)[C@H](N)C[C@@H]2N)[C@H](N)C[C@@H]1O [Tobramycin, tobramycin]
